From US8575201B2 (Boehringer Ingelheim International GmbH, priority 2010, dated 2013) come the findings set out here.

Assay [1] has as its target recombinant human FLAP protein (Homo sapiens (Human), UniProt P20292). Nature of the assay: FLAP binding assay (Scintillation Proximity Assay, displacement of [125I]L-691,831). Conditions: read-out: FLAP SPA IC50. How it is done:
Assessment of Biological Properties 1. Binding Assay: Compounds are assessed for the ability to bind to FLAP in a binding assay that measures compound-specific displacement of an iodinated (^125I) FLAP inhibitor via a Scintillation Proximity Assay format (adapted from S. Charleson et al., Mol. Pharmacol., 1992, 41, 873-879). […] The cells are lysed with a Dounce homogenizer and the material is centrifuged at 10,000×g for 10 minutes. The supernatant is then collected and centrifuged at 100,000×g for 60 minutes. To prepare membrane protein for an assay, an aliquot of the 100,000×g pellet is resuspended in 1 ml of buffer A, Dounce homogenized, and finally subjected to polytron mixing (30 seconds). […] Mol. Pharmacol., 41, 873-879, 1992) and finally 50 μl of the bead/protein mixture. (final concentrations: beads, 200 μg/well; protein, 5 μg/well; […] The plates are shaken for 2 h before reading on a Microbeta plate reader.

Assay [2] has as its system synthesis of LTB4 in human whole blood. Nature of the assay: Human whole blood LTB4 production inhibition assay. The format is cell-based. To be noted: calcimycin stimulated, read-out: hWB LTB4 IC50. How it is done: Compounds are additionally tested in a human whole blood assay to determine their ability to inhibit the synthesis of LTB4 in a cellular system. Compounds are combined with heparinized human whole blood and incubated for 15 minutes at 37° C. Calcimycin (20 μM final, prepared in phosphate-buffered saline, pH 7.4) is then added and the mixture is incubated for another 30 minutes at 37° C. The samples are centrifuged for 5 min at low speed (1500×g) and the plasma layer is removed. Plasma LTB4 concentrations are then measured using an antibody-based homogenous time-resolved fluorescence method (CisBio, Bedford, Mass.).

Each structure is given as a SMILES string. Where only a bound is given, the exact number is not on record here.

The term IC50 denotes the concentration at which inhibition is half-maximal.

recombinant human FLAP protein, sequence (P20292 whole entry): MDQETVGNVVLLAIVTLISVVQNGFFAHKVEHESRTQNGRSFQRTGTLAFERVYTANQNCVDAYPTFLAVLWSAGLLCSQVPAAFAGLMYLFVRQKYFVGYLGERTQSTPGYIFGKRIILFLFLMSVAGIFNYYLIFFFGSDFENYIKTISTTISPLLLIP

As to `Nc1ncc(-c2ccc(C3(c4noc(-c5ccc(N6CCC[C@H]6C(=O)O)nc5)n4)CCC3)cn2)cn1` [Example 35, 1-[5-(3-{1-[6-(2-aminopyrimidin-5-yl)pyridin-3-yl]cyclobutyl}-1,2,4-oxadiazol-5-yl)pyridin-2-yl]-L-proline], the IC50 is 43 nM in assay [1] and over 5000 nM in assay [2]. Take `CNc1ncc(-c2ccc(C3(c4noc(-c5cnn(CC(C)(C)O)c5)n4)CCC3)cn2)cn1` [Example 165, 2-Methyl-1-[4-(3-{1-[6-(2-methylamino-pyrimidin-5-yl)-pyridin-3-yl]-cyclobutyl}-[1,2,4]oxadiazol-5-yl)-pyrazol-1-yl]-propan-2-ol]: the 50% inhibitory concentration (IC50) worked out at 73 nM in assay [1] and 280 nM in assay [2]. For `CS(=O)(=O)c1ccc(-c2nc(C3(c4ccc(-c5cnc(N)nc5)nc4)CCC3)no2)cc1` [Example 7, 5-[5-(1-{5-[4-(methylsulfonyl)phenyl]-1,2,4-oxadiazol-3-yl}cyclobutyl)pyridin-2-yl]pyrimidin-2-amine], in that order: 11 nM and 690 nM. As for `Cc1nc(N)cnc1-c1ccc(C2(c3noc(-c4cnn(CC(C)(C)O)c4)n3)CCC2)cn1` [Example 172, 1-[4-(3-{1-[6-(5-Amino-3-methyl-pyrazin-2-yl)-pyridin-3-yl]-cyclobutyl}-[1,2,4]oxadiazol-5-yl)-pyrazol-1-yl]-2-methyl-propan-2-ol], the IC50 in assay [2] came out at 51 nM. The same measure, in the same setting: the result for `Nc1ncc(-c2ccc(C3(c4noc(-c5ccc6[nH]ncc6c5)n4)CCC3)cn2)cn1` [Example 79, 5-(5-{1-[5-(1H-indazol-5-yl)-1,2,4-oxadiazol-3-yl]cyclobutyl}pyridin-2-yl)pyrimidin-2-amine] reads 68 nM. Take `Nc1ncc(-c2ccc(C3(c4noc(-c5cnn(CC(F)(F)F)c5)n4)CCC3)cn2)cn1` [Example 69, 5-[5-(1-{5-[1-(2,2,2-trifluoroethyl)-1H-pyrazol-4-yl]-1,2,4-oxadiazol-3-yl}cyclobutyl)pyridin-2-yl]pyrimidin-2-amine]: the IC50 worked out at 7.6 nM in assay [1] and 170 nM in assay [2]. For `N#Cc1ccc(-c2nc(C3(c4ccc(-c5cnc(N)nc5)nc4)CCC3)no2)cn1` [Example 83, 5-(3-{1-[6-(2-aminopyrimidin-5-yl)pyridin-3-yl]cyclobutyl}-1,2,4-oxadiazol-5-yl)pyridine-2-carbonitrile], in that order: 52 nM and 410 nM. For `CNC(=O)Cn1cc(-c2nc(C3(c4ccc(-c5cnc(N)nc5)nc4)CCC3)no2)cn1` [Example 58, 2-[4-(3-{1-[6-(2-aminopyrimidin-5-yl)pyridin-3-yl]cyclobutyl}-1,2,4-oxadiazol-5-yl)-1H-pyrazol-1-yl]-N-methylacetamide], in that order: 22 nM and 250 nM. Consider `Nc1ncc(-c2ccc(C3(c4noc(-c5ccc(Cl)nc5)n4)CCC3)cn2)cn1` [Example 99, 5-(5-{1-[5-(6-chloropyridin-3-yl)-1,2,4-oxadiazol-3-yl]cyclobutyl}pyridin-2-yl)pyrimidin-2-amine], for which the IC50 is 7.5 nM in assay [1] and 660 nM in assay [2].

For `Nc1ncc(-c2ccc(C3(c4noc(-c5ccc(NCC(=O)O)nc5)n4)CCC3)cn2)cn1` [Example 16, N-[5-(3-{1-[6-(2-aminopyrimidin-5-yl)pyridin-3-yl]cyclobutyl}-1,2,4-oxadiazol-5-yl)pyridin-2-yl]glycine], the values for the IC50 in assay [1] and in assay [2] were 11 nM and 2200 nM, respectively.

For the compound `C[C@H](O)CNc1ccc(-c2nc(C3(c4ccc(-c5cnc(N)nc5)nc4)CCC3)no2)cn1` [Example 46, (2S)-1-{[5-(3-{1-[6-(2-aminopyrimidin-5-yl)pyridin-3-yl]cyclobutyl}-1,2,4-oxadiazol-5-yl)pyridin-2-yl]amino}propan-2-ol], the half-maximal inhibitory concentration (IC50) in assay [1] amounted to 2.4 nM; in assay [2], 110 nM. For `Cc1ccc(-c2nc(C3(c4ccc(-c5cnc(N)nc5)nc4)CCC3)no2)cc1` [Example 6, 5-(5-{1-[5-(4-methylphenyl)-1,2,4-oxadiazol-3-yl]cyclobutyl}pyridin-2-yl)pyrimidin-2-amine], in that order: 5.8 nM and 830 nM.

Turning to `CCNc1ccc(-c2nc(C3(c4ccc(-c5cnc(N)nc5)nc4)CCC3)no2)cn1` [Example 8, 5-[5-(1-{5-[6-(ethylamino)pyridin-3-yl]-1,2,4-oxadiazol-3-yl}cyclobutyl)pyridin-2-yl]pyrimidin-2-amine], the IC50 in assay [1] is 2 nM; in assay [2], 110 nM. For the compound `Nc1ncc(-c2ccc(C3(c4noc(-c5ccc(N6CCS(=O)(=O)CC6)nc5)n4)CCC3)cn2)cn1` [Example 49, 5-[5-(1-{5-[6-(1,1-dioxidothiomorpholin-4-yl)pyridin-3-yl]-1,2,4-oxadiazol-3-yl}cyclobutyl)pyridin-2-yl]pyrimidin-2-amine], the IC50 in assay [1] stood at 3.7 nM; in assay [2], 180 nM. Taken in the same sequence, the figures for `Nc1ncc(-c2ccc(C3(c4noc(-c5ccc(N6CCN[C@H](C(=O)O)C6)nc5)n4)CCC3)cn2)cn1` [Example 41, (2S)-4-[5-(3-{1-[6-(2-aminopyrimidin-5-yl)pyridin-3-yl]cyclobutyl}-1,2,4-oxadiazol-5-yl)pyridin-2-yl]piperazine-2-carboxylic acid] were 7.7 nM and over 5000 nM. Taken in the same sequence, the figures for `CN(C)C(=O)Cn1cc(-c2nc(C3(c4ccc(-c5ccc(N)nc5)nc4)CCC3)no2)cn1` [Example 163, 2-(4-{3-[1-(6′-amino-[2,3′]bipyridinyl-5-yl)-cyclobutyl]-[1,2,4]oxadiazol-5-yl}-pyrazol-1-yl)-N,N-dimethyl-acetamide] were 110 nM and 300 nM. Taken in the same sequence, the figures for `Cc1cc(-c2nc(C3(c4ccc(-c5cnc(N)nc5)cn4)CCC3)no2)[nH]n1` [Example 133, 5-(6-{1-[5-(3-methyl-1H-pyrazol-5-yl)-1,2,4-oxadiazol-3-yl]cyclobutyl}pyridin-3-yl)pyrimidin-2-amine] were 43 nM and 340 nM. `CNc1cnc(-c2ccc(C3(c4noc(-c5cnn(CC#N)c5)n4)CCC3)cn2)cn1` [Example 173, [4-(3-{1-[6-(5-Methylamino-pyrazin-2-yl)-pyridin-3-yl]-cyclobutyl}-[1,2,4]oxadiazol-5-yl)-pyrazol-1-yl]-acetonitrile]: the IC50 in assay [2] came out at 18 nM. The same measure, in the same setting: then `Cc1nc(N)cnc1-c1ccc(C2(c3noc(-c4cnn(C5COC5)c4)n3)CCC2)cn1` [Example 169, 6-Methyl-5-(5-{1-[5-(1-oxetan-3-yl-1H-pyrazol-4-yl)-[1,2,4]oxadiazol-3-yl]-cyclobutyl}-pyridin-2-yl)-pyrazin-2-ylamine], with 21 nM; and `COCCNc1cnc(-c2nc(C3(c4ccc(-c5cnc(N)nc5)nc4)CCC3)no2)cn1` [Example 56, 5-{5-[1-(5-{5-[(2-methoxyethyl)amino]pyrazin-2-yl}-1,2,4-oxadiazol-3-yl)cyclobutyl]pyridin-2-yl}pyrimidin-2-amine], with 24 nM.

On to `CN1CCN(c2cnc(-c3nc(C4(c5ccc(-c6cnc(N)nc6)nc5)CCC4)no3)cn2)CC1` [Example 61, 5-[5-(1-{5-[5-(4-methylpiperazin-1-yl)pyrazin-2-yl]-1,2,4-oxadiazol-3-yl}cyclobutyl)pyridin-2-yl]pyrimidin-2-amine], for which, in assay [2], the half-maximal inhibitory concentration (IC50) came out at 41 nM. Consider `COC(=O)[C@@H]1CN(c2ccc(-c3nc(C4(c5ccc(-c6cnc(N)nc6)nc5)CCC4)no3)cn2)CCN1` [Example 39, methyl (2S)-[5-(3-{1-[6-(2-aminopyrimidin-5-yl)pyridin-3-yl]cyclobutyl}-1,2,4-oxadiazol-5-yl)pyridin-2-yl]piperazine-2-carboxylate], for which the IC50 in assay [2] is 86 nM. Consider `COCCn1cc(-c2nc(C3(c4ccc(-c5cnc(N)nc5)nc4)CCC3)no2)cn1` [Example 28, 5-[5-(1-{5-[1-(2-methoxyethyl)-1H-pyrazol-4-yl]-1,2,4-oxadiazol-3-yl}cyclobutyl)pyridin-2-yl]pyrimidin-2-amine], for which, in assay [2], the IC50 was found to be 210 nM. On the same count and under the same terms, then `N#CCn1cc(-c2nc(C3(c4ccc(-c5cnc(N)cn5)nc4)CCC3)no2)cn1` [Example 170, [4-(3-{1-[6-(5-Amino-pyrazin-2-yl)-pyridin-3-yl]-cyclobutyl}-[1,2,4]oxadiazol-5-yl)-pyrazol-1-yl]-acetonitrile], with 51 nM; and `CC(C)(C)NC(=O)Cn1cc(-c2nc(C3(c4ccc(-c5cnc(N)nc5)nc4)CCC3)no2)cn1` [Example 144, 2-[4-(3-{1-[6-(2-aminopyrimidin-5-yl)pyridin-3-yl]cyclobutyl}-1,2,4-oxadiazol-5-yl)-1H-pyrazol-1-yl]-N-tert-butylacetamide], with 190 nM; and `CCNc1cnc(-c2nc(C3(c4ccc(-c5cnc(N)nc5)nc4)CCC3)no2)cn1` [Example 57, 5-[5-(1-{5-[5-(ethylamino)pyrazin-2-yl]-1,2,4-oxadiazol-3-yl}cyclobutyl)pyridin-2-yl]pyrimidin-2-amine], with 34 nM. On the same count and under the same terms, the result for `CCNC(=O)Cn1cc(-c2nc(C3(c4ccc(-c5cnc(N)nc5)nc4)CCC3)no2)cn1` [Example 158, 2-[4-(3-{1-[6-(2-amino-pyrimidin-5-yl)-pyridin-3-yl]-cyclobutyl}-[1,2,4]oxadiazol-5-yl)-pyrazol-1-yl]-N-ethyl-acetamide] reads 550 nM.
